Assay results from patent EP1167342A1, “Novel substituted nitrocatechols, their use in the treatment of some central and peripheral nervous system disorders and pharmaceutical compositions containing them” (Portela & Ca., S.A., priority 2000, dated 2002).

Columns and labels:
[1] = test system: Brain COMT; test: Ex vivo COMT activity in mouse brain homogenates after administration of test compound by gastric tube; set-up: species or system NMRI mice; conditions: for Brain COMT (% of control) 1h / Brain COMT (% of control) 6h: homogenates of mice brain, dose not given, means±S.E.M. of 4-8 experiments; for Brain COMT (% of control) 1h: 1 h after administration by gastric tube; for Brain COMT (% of control) 6h: 6 h after administration by gastric tube; for activity in the brain: conclusion, statement in words
[2] = test system: Liver COMT; test: Ex vivo COMT activity in mouse liver homogenates after administration of test compound by gastric tube; set-up: species or system NMRI mice; conditions: for Liver COMT (% of control) 1h / Liver COMT (% of control) 6h: homogenates of mice liver, dose not given, means±S.E.M. of 4-8 experiments; for Liver COMT (% of control) 1h: 1 h after administration by gastric tube; for Liver COMT (% of control) 6h: 6 h after administration by gastric tube; for potency upon liver COMT compared with brain COMT: mice, after oral administration, statement in words
[3] = molecular target: T1, COMT (Homo sapiens, UniProt P21964); test: COMT activity in intact SK-N-SH cells (methylation of adrenaline to metanephrine, HPLC with electrochemical detection); format: cell-based; conditions: concentration of test compound 100 nM, means ±SEM of n=4-8
T1 construct: COMT activity was evaluated in cell monolayers by the ability to methylate adrenaline; host or cells: SK-N-SH
T1 sequence (P21964 1-271): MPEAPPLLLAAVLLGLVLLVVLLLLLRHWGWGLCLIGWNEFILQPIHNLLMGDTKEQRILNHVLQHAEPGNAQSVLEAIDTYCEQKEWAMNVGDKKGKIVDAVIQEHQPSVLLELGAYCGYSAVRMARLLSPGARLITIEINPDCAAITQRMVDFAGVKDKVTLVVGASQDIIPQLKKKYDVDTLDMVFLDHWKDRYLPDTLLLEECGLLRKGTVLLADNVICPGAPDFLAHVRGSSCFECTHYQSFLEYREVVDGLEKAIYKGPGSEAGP

Row | Structure (SMILES) | Brain COMT (% of control) 1h [1] | Brain COMT (% of control) 6h [1] | Liver COMT (% of control) 1h [2] | Liver COMT (% of control) 6h [2] | COMT activity (% of control) [3] | activity in the brain [1] | potency upon liver COMT compared with brain COMT [2]
1 | Cl.O=C(CN1CCCCCC1)c1cc(O)c(O)c([N+](=O)[O-])c1 [Compound 1, 2-Azepan-1-yl-1-(3,4-dihydroxy-5-nitro-phenyl)-ethanone hydrochloride] | 45.0±15.0 % of control | 102.0±19.0 % of control | 40.8±6.4 % of control | 49.9±2.2 % of control | 4.3±0.6 % of control | – | –
2 | Cl.O=C(CCN1CCCCC1)c1cc(O)c(O)c([N+](=O)[O-])c1 [Compound 2, 1-(3,4-Dihydroxy-5-nitro-phenyl)-3-piperidin-1-yl-propan-1-one hydrochloride] | 80.0±11.0 % of control | 95.0±12.0 % of control | 24.6±4.8 % of control | 56.9±17.7 % of control | 7.5±0.6 % of control | limited activity in the brain | much more potent upon liver COMT than brain COMT
3 | Cl.O=C(CC(c1ccccc1)N1CCCCC1)c1cc(O)c(O)c([N+](=O)[O-])c1 (centres unmarked) [Compound 3, 1-(3,4-Dihydroxy-5-nitro-phenyl)-3-phenyl-3-piperidin-1-yl-propan-1-one hydrochloride] | 81.0±11.0 % of control | 71.0±11.0 % of control | 13.5±3.2 % of control | 13.6±3.2 % of control | 7.2±1.9 % of control | limited activity in the brain | much more potent upon liver COMT than brain COMT
4 | Cl.O=C(CC(c1ccccc1)N1CCCC1)c1cc(O)c(O)c([N+](=O)[O-])c1 (centres unmarked) [Compound 4, 1-(3,4-Dihydroxy-5-nitro-phenyl)-3-phenyl-3-pyrrolidin-1-yl-propan-1-one hydrochloride] | 55.0±8.7 % of control | 49.6±4.9 % of control | 12.0±1.8 % of control | 14.4±4.3 % of control | 23.8±2.9 % of control | – | –
5 | Cl.O=C(CC(c1ccccc1)N1CCOCC1)c1cc(O)c(O)c([N+](=O)[O-])c1 (centres unmarked) [Compound 5, 1-(3,4-Dihydroxy-5-nitro-phenyl)-3-morpholin-4-yl-3-phenyl-propan-1-one hydrochloride] | 38.6±6.4 % of control | 57.2±5.1 % of control | 16.7±1.6 % of control | 35.2±9.6 % of control | 40.2±8.7 % of control | – | equally potent in inhibiting liver and brain COMT activity
6 | CC1CCCCN1CC(=O)c1cc(O)c(O)c([N+](=O)[O-])c1.Cl (centres unmarked) [Compound 6, 1-(3,4-Dihydroxy-5-nitro-phenyl)-2-(2-methyl-piperidin-1-yl)-ethanone hydrochloride] | 37.0±3.3 % of control | 66.0±2.6 % of control | 57.6±5.8 % of control | 99.9±10.3 % of control | 12.2±1.7 % of control | – | –
7 | CCN(CC)C(C)C(=O)c1cc(O)c(O)c([N+](=O)[O-])c1.Cl (centres unmarked) [Compound 7, 2-Diethylamino-1-(3,4-dihydroxy-5-nitro-phenyl)-propan-1-one hydrochloride] | 74.0±12.0 % of control | 126.0±8.0 % of control | 38.4±2.8 % of control | 57.1±4.9 % of control | 9.0±0.2 % of control | – | –
8 | O=C(COc1ccccc1)c1cc(O)c(O)c([N+](=O)[O-])c1 [Compound 8, 1-(3,4-Dihydroxy-5-nitro-phenyl)-2-phenoxy-ethanone] | 61.0±4.0 % of control | 104.4±6.2 % of control | 22.0±3.7 % of control | 49.6±9.4 % of control | 8.6±0.1 % of control | – | –
9 | COc1ccc(OCC(=O)c2cc(O)c(O)c([N+](=O)[O-])c2)cc1 [Compound 9, 1-(3,4-Dihydroxy-5-nitro-phenyl)-2-(4-methoxy-phenoxy)-ethanone] | 59.0±6.0 % of control | 93.0±9.0 % of control | 29.0±1.0 % of control | 35.0±6.0 % of control | 12.8±0.4 % of control | – | –
10 | O=C(COc1ccc2ccccc2c1)c1cc(O)c(O)c([N+](=O)[O-])c1 [Compound 10, 1-(3,4-Dihydroxy-5-nitro-phenyl)-2-(naphthalen-2-yloxy)-ethanone] | 83.0±5.0 % of control | 119.0±13.0 % of control | 17.3±2.7 % of control | 38.7±4.7 % of control | 2.0±0.1 % of control | limited activity in the brain | much more potent upon liver COMT than brain COMT
11 | CC1CN(CC(=O)c2cc(O)c(O)c([N+](=O)[O-])c2)CC(C)O1.Cl (centres unmarked) [Compound 11, 1-(3,4-Dihydroxy-5-nitro-phenyl)-2-(2,6-dimethyl-morpholin-4-yl)-ethanone hydrochloride] | 80.0±5.0 % of control | 103.0±7.0 % of control | 38.0±5.0 % of control | 73.0±10.0 % of control | 14.8±1.3 % of control | – | –
12 | CC1CC(C)CN(CC(=O)c2cc(O)c(O)c([N+](=O)[O-])c2)C1.Cl (centres unmarked) [Compound 12, 1-(3,4-Dihydroxy-5-nitro-phenyl)-2-(3,5-dimethyl-piperidin-1-yl)-ethanone hydrochloride] | 32.0±2.0 % of control | 84.0±6.0 % of control | 33.0±2.0 % of control | 52.0±13.0 % of control | 15.4±1.8 % of control | – | –
13 | Cl.Cl.O=C(CN1CCN(c2cccc(C(F)(F)F)c2)CC1)c1cc(O)c(O)c([N+](=O)[O-])c1 [Compound 13, 1-(3,4-Dihydroxy-5-nitro-phenyl)-2-[4-(3-trifluoromethyl-phenyl)-piperazin-1-yl]-ethanone dihydrochloride] | 76.0±9.0 % of control | 100.0±10.0 % of control | 49.7±3.2 % of control | 46.7±2.9 % of control | 7.7±0.6 % of control | – | –
14 | Cl.Cl.Cl.O=C(CN1CCN(c2ccccn2)CC1)c1cc(O)c(O)c([N+](=O)[O-])c1 [Compound 14, 1-(3,4-Dihydroxy-5-nitro-phenyl)-2-(4-pyridin-2-yl-piperazin-1-yl)-ethanone trihydrochloride] | 95.4±11.4 % of control | 121.2±11.8 % of control | 33.6±5.6 % of control | 50.3±5.6 % of control | 8.5±0.3 % of control | – | –
15 | Cl.N#CC1(c2ccccc2)CCN(CCC(=O)c2cc(O)c(O)c([N+](=O)[O-])c2)CC1 [Compound 15, 1-[3-(3,4-Dihydroxy-5-nitro-phenyl)-3-oxo-propyl]-4-phenyl-piperidine-4-carbonitrile hydrochloride] | 93.0±9.0 % of control | 122.0±9.0 % of control | 51.7±5.9 % of control | 37.9±8.4 % of control | 2.9±0.3 % of control | – | –
16 | Cl.O=C(CCN1CCc2ccccc2C1)c1cc(O)c(O)c([N+](=O)[O-])c1 [Compound 27, 3-(3,4-Dihydro-1H-isoquinolin-2-yl)-1-(3,4-dihydroxy-5-nitro-phenyl)-propan-1-one hydrochloride] | – | – | – | – | 11.4±4.0 % of control | – | –
17 | Cc1ccc(SCC(=O)c2cc(O)c(O)c([N+](=O)[O-])c2)cc1 [Compound 28, 1-(3,4-Dihydroxy-5-nitro-phenyl)-2-p-tolylsulphanyl-ethanone] | – | – | – | – | 10.0±2.6 % of control | – | –
18 | Cl.Cl.O=C(CCN1CCN(C(=O)c2ccccc2)CC1)c1cc(O)c(O)c([N+](=O)[O-])c1 [Compound 29, 3-(4-Benzoyl-piperazin-1-yl)-1-(3,4-dihydroxy-5-nitro-phenyl)-propan-1-one dihydrochloride] | – | – | – | – | 1.5±0.6 % of control | – | –
19 | COc1ccc(C(=O)N2CCN(CCC(=O)c3cc(O)c(O)c([N+](=O)[O-])c3)CC2)cc1.Cl.Cl [Compound 30, 1-(3,4-Dihydroxy-5-nitro-phenyl)-3-[4-(4-methoxy-benzoyl)-piperazin-1-yl]-propan-1-one dihydrochloride] | – | – | – | – | 1.9±1.3 % of control | – | –
